Columns and labels:
serum insulin = test: 28-day mouse side-effect model, serum insulin; type: in vivo; conditions: oral gavage 28 days
Experimental: (§1) 10-12 week old female Swiss Webster mice (Taconic, Germantown, N.Y., U.S.A.) weighing 27-29 grams are used in accordance with the guidelines of the Institutional Animal Care and Use Committee and in accordance with NIH guidelines on laboratory animal welfare. Mice are acclimated to the Pfizer animal facility for 3-7 days prior to being placed on study. Prednisolone and DAGR compounds are administered by oral gavage for a total of 28 days. Each treatment group generally contains 8-10 mice. To establish a dosing regimen for the studies, a pilot pharmacodynamic time course experiment is conducted to quantify TNFa repression after a single ED80 dose (determined from the acute LPS endotoxemia mouse model). […] DAGR compounds vary in their required frequency of doses.
(§2) Body weights are measured on the first and last day of each experiment. Blood samples are obtained after ˜3 weeks of dosing for steady-state pharmacokinetic analysis. To assess compound effects on LPS-induced TNF-a, all mice receive an intraperitoneal injection of LPS (Salmonella Typhosa, Sigma, St. Louis, L-7895) 2.5 hr after the last dose on day 28. Mice are sacrificed 90 min. after LPS administration. Serum samples are assayed for osteocalcin and TNFa using the Linco multiplex assay (St. Charles, Mo.) and Luminex 100 (Austin, Tex.). Samples are diluted 1:20 and the assay is run according to manufacturer's instructions. An osteocalcin standard is purchased separately from Biomedical Technologies Incorporated (Stoughton, Mass.). Serum insulin is measured to assess compound effects on insulin resistance. Insulin was measured using the UltraSensitive Mouse EIA kit from Alpco Diagnostics (Salem, N.H.) following the manufacturer's protocol.
(§3) ED50 and ED80 values are obtained for the various parameters using four-parameter logistic fits of data. For each experiment/dose group, outliers are detected by calculating the number of standard deviations each mouse's value was from the mean of their group and then dividing by the standard deviation of the group. The means and standard deviations used in this calculation omitted the value being examined so that, if it were an outlier, it would have no influence. If the value being examined is more than 2.5 standard deviations from the mean, it was not used in the rest of the calculations.
(§4) Percent inhibition values are then calculated for each animal using the means of the vehicle and 10 mpk prednisone control groups. The individual mouse percent inhibition values are then fit to a four-parameter logistic model using the area under curve mean for each group. Since all four parameters are estimated and the lower plateau is not fixed at 0% and the upper plateau was not fixed at 100%, the ED50 and ED80 values are calculated by using an inverse calibration formula for a response equal to 50% or 80%. The designation “nd” means not determined.

LPS-induced TNFα = test: 28-day mouse side-effect model, LPS-induced serum TNFα suppression; type: in vivo; conditions: oral gavage 28 days, LPS challenge
Experimental: as §1, §2, §3, §4

osteocalcin = test: 28-day mouse side-effect model, serum osteocalcin suppression; type: in vivo; conditions: oral gavage 28 days
Experimental: as §1, §2, §3, §4

IFNγ = test: LPS-induced human whole blood, IFNγ release; type: cell-based; conditions: for inhibition at 0.00137174 µM: 1.371742 nM; for inhibition at 0.00411523 µM: 4.115226 nM; for inhibition at 0.0123457 µM: 12.34568 nM; for inhibition at 0.037037 µM: 37.03704 nM; for inhibition at 0.111111 µM: 111.1111 nM; for inhibition at 0.333333 µM: 333.3333 nM; for inhibition at 1 µM: 1000 nM; for inhibition at 3 µM / IFNγ (% inhibition): 3000 nM; for IFNγ (% inhibition): 3 µM
Experimental: (§5) Venous blood from human donors was collected as 10 ml aliquots in tubes containing sodium heparin (BD Vacutainer from Becton Dickinson and Company, Franklin Lakes, N.Y.). Blood was added to sterile polystyrene round bottom 96-well tissue culture plates (Corning Costar) at 180 Blood was placed in a humidified 37 C incubator with 5% CO2 while compounds were prepared (nearly 60 minutes).
(§6) Compounds were prepared from 10 mM stock solutions in dimethylsulfoxide (DMSO, Sigma-Aldrich). Stock compound was diluted in DMSO to give appropriate starting concentration then diluted serially 1/3 in DMSO (i.e. 15 μl compound+30 μl DMSO), followed by diluting each serial dilution 1/167 into vehicle solution (2% DMSO in phosphate buffered saline (Dulbecco's Phosphate Buffered Saline without calcium chloride without magnesium chloride, Invitrogen Corporation, Carlsbad Calif.)). Compound or vehicle was added to blood in 10 μl aliquots as triplicates, omitting the outside wells to minimize possible edge effects. The final highest concentration of each compound in the assay ranged from 3 to 0.3 μM. Final DMSO concentration in the assay was 0.1%. The plate containing the samples was gently vortexed to mix and replaced in the incubator. LPS stock (E. coli serotype 0111:B4, Sigma-Aldrich), stored in aliquots of 100 μg/ml in RPMI at −20° C., was diluted […] in RPMI to make a working stock solution. After 60 minutes of incubation, 10 μl of the prepared LPS working stock was added to the blood to a final concentration of 100 ng/ml. Wells to be used as negative control received RPMI media with no LPS. The plate was again gently vortexed and the plates incubated overnight for 22 hours. Following incubation, the blood was centrifuged at 1500×g for 5 minutes and the plasma removed to either freeze at −20° C. or assay for cytokine release.
(§7) IL-1β, IFNγ and TNFα protein levels were measured using Meso Scale assay kits (Meso Scale Discovery, Gaithersburg, Md., U.S.A.). Reagents were allowed to come to room temperature. Meso Scale plates were blocked with 150 μl of Meso Scale Block B diluent, gently shaking at room temperature for 60 minutes. Plates were washed 3× with wash buffer (PBS, Invitrogen Corporation, with 0.05% Tween-20, Sigma-Aldrich). Calibrators for standard curves were prepared in human plasma/serum assay diluent as a 1/5 serial dilution to achieve final concentrations ranging from 50000 pg/ml to 3.2 pg/ml. Samples were added at 10 to 20 μl/well and calibrators were added at 20 μl/well then incubated at room temperature with gentle shaking for 2 hours. Plates were again washed 3× with wash buffer. Detection antibody was diluted in human plasma/serum antibody diluent to 1 μg/ml and added to the plate at 20 μl/well. Plates were incubated as before for 2 hours and washed again. Read Buffer T (4×) was diluted 1:1 with mqH20 to 2× concentration and 150 μl added to each well. Plates were read on the SECTOR Imager 6000 (Meso Scale Discovery) to generate raw signal values.
(§8) Individual sample signal values were compared to positive and negative controls (vehicle treated blood with LPS and vehicle treated blood without LPS, respectively) to generate % inhibition. Triplicate values were averaged for each donor. The values for three or four donors were averaged and graphed using 4-parameter fit curves in the LabStats plug-in for the Microsoft Excel application.

IL-6 = test: LPS-induced human whole blood, IL-6 release; type: cell-based; conditions: mean of donors
IL-1β = test: LPS-induced human whole blood, IL-1β release; type: cell-based; conditions: for inhibition at 0.00137174 µM: 1.371742 nM; for inhibition at 0.00411523 µM: 4.115226 nM; for inhibition at 0.0123457 µM: 12.34568 nM; for inhibition at 0.037037 µM: 37.03704 nM; for inhibition at 0.111111 µM: 111.1111 nM; for inhibition at 0.333333 µM: 333.3333 nM; for inhibition at 1 µM: 1000 nM; for inhibition at 3 µM: 3000 nM
Experimental: as §5, §6, §7, §8

TNFα = test: LPS-induced human whole blood, TNFα release; type: cell-based; conditions: for inhibition at 0.00137174 µM: 1.371742 nM; for inhibition at 0.00411523 µM: 4.115226 nM; for inhibition at 0.0123457 µM: 12.34568 nM; for inhibition at 0.037037 µM: 37.03704 nM; for inhibition at 0.111111 µM: 111.1111 nM; for inhibition at 0.333333 µM: 333.3333 nM; for inhibition at 1 µM: 1000 nM; for inhibition at 3 µM: 3000 nM
Experimental: as §5, §6, §7, §8

[1] = Homo sapiens, 0.457247 nM, mean of donors
[2] = ex vivo LPS-stimulated human whole blood, extent of inhibition, concentration not given

Structure (SMILES)	inhibition at 0.00137174 µM (IFNγ; Homo sapiens, mean of donors)	inhibition at 0.00411523 µM (IFNγ; Homo sapiens, mean of donors)	inhibition at 0.0123457 µM (IFNγ; Homo sapiens, mean of donors)	inhibition at 0.037037 µM (IFNγ; Homo sapiens, mean of donors)	inhibition at 0.111111 µM (IFNγ; Homo sapiens, mean of donors)	inhibition at 0.333333 µM (IFNγ; Homo sapiens, mean of donors)	inhibition at 1 µM (IFNγ; Homo sapiens, mean of donors)	inhibition at 0.00137174 µM (IL-1β; Homo sapiens, mean of donors)	inhibition at 0.00411523 µM (IL-1β; Homo sapiens, mean of donors)	inhibition at 0.0123457 µM (IL-1β; Homo sapiens, mean of donors)	inhibition at 0.037037 µM (IL-1β; Homo sapiens, mean of donors)	inhibition at 0.111111 µM (IL-1β; Homo sapiens, mean of donors)	inhibition at 0.333333 µM (IL-1β; Homo sapiens, mean of donors)	inhibition at 1 µM (IL-1β; Homo sapiens, mean of donors)	inhibition at 0.00137174 µM (TNFα; Homo sapiens, mean of donors)	inhibition at 0.00411523 µM (TNFα; Homo sapiens, mean of donors)	inhibition at 0.0123457 µM (TNFα; Homo sapiens, mean of donors)	inhibition at 0.037037 µM (TNFα; Homo sapiens, mean of donors)	inhibition at 0.111111 µM (TNFα; Homo sapiens, mean of donors)	inhibition at 0.333333 µM (TNFα; Homo sapiens, mean of donors)	other results
Cc1nc(Br)ccc1NC(=O)c1ccc2c(c1)CC[C@@H]1C[C@@](O)(c3ccccc3)[C@](C)(O)C[C@@]21Cc1ccccc1 [Comparator B, (4bR,6R,7R,8aR)-4b-benzyl-N-(6-bromo-2-methylpyridin-3-yl)-6,7-dihydroxy-6-methyl-7-phenyl-4b,5,6,7,8,8a,9,10-octahydrophenanthrene-2-carboxamide]																					ED50 at 28 days (serum insulin; female, Swiss Webster, read-out: Insulin (ED50 dose)): 1.04 mg/kg; Insulin (ED80 dose) (serum insulin): 7.58; ED50 (LPS-induced TNFα; 672 h, read-out: TNFα Suppression (ED50 dose)): 0.083 mg/kg; TNFα Suppression (ED80 dose) (LPS-induced TNFα): 0.45; ED50 at 28 days (osteocalcin; female, Swiss Webster, read-out: Osteocalcin Suppression (ED50 dose)): 0.21 mg/kg; Osteocalcin Suppression (ED80 dose) (osteocalcin): 0.97
Cc1ncccc1CNC(=O)c1ccc2c(c1)CC[C@@H]1C[C@@](O)(CCC(F)(F)F)CC[C@@]21Cc1ccccc1 [Comparator A, (4βS,7S,8αR)-4β-benzyl-7-hydroxy-N-((2-methylpyridin-3-yl)methyl)-7-(3,3,3-trifluoropropyl)-4β,5,6,7,8,8α,9,10-octahydrophenanthrene-2-carboxamide]	18.1%	-1.7%	0.016%	-9.81%	8.74%	-6.32%	16.5%	32%	22%	22.8%	17.3%	8.6%	12.2%	15%	18.1%	-0.861%	0.0309%	-4.19%	-3.82%	-4.61%	inhibition at 3 µM (IFNγ; Homo sapiens, mean of donors): 28%; inhibition at 0.00137174 µM (IL-6; 1.371742 nM): 1.46%; inhibition at 0.00411523 µM (IL-6; 4.115226 nM): -4.34%; inhibition at 0.0123457 µM (IL-6; 12.34568 nM): -1.13%; inhibition at 0.037037 µM (IL-6; 37.03704 nM): -3.52%; inhibition at 0.111111 µM (IL-6; 111.1111 nM): -3.5%; inhibition at 0.333333 µM (IL-6; 333.3333 nM): -2.83%; inhibition at 1 µM (IL-6; 1000 nM): -0.89%; inhibition at 3 µM (IL-6; 3000 nM): -1.97%; inhibition at 3 µM (IL-1β; Homo sapiens, mean of donors): 16.4%; inhibition at 1 µM (TNFα; Homo sapiens, mean of donors): -5.44%; inhibition at 3 µM (TNFα; Homo sapiens, mean of donors): -3.04%
C[C@]12C=CC(=O)C=C1CC[C@@H]1[C@@H]2[C@@H](O)C[C@@]2(C)[C@H]1CC[C@]2(O)C(=O)CO [Prednisolone]	9.75%	25.2%	34.7%	70.7%	85.2%	94.8%	96.4%	-1.26%	0.84%	7.17%	36.7%	61.9%	87.6%	91.8%	6.36%	8.95%	19.6%	49.2%	67.1%	86.9%	inhibition at 0.000457247 µM (IFNγ; [1]): 1.19%; level of inhibition of IFN (IFNγ; [2]): full inhibition; inhibition at 0.000457247 µM (IL-1β; [1]): -0.571%; level of inhibition of IL-1 (IL-1β; [2]): full inhibition; inhibition at 0.000457247 µM (TNFα; [1]): 2.76%; inhibition at 1 µM (TNFα; Homo sapiens, mean of donors): 90.4%; level of inhibition of TNF (TNFα; [2]): full inhibition
Oc1ccc2c(c1)CC[C@@H]1C[C@@](O)(c3ccccc3)[C@@H](O)C[C@@]21Cc1ccccc1 [Comparator F, (2R,3S,4aR,10aR)-4a-Benzyl-2-phenyl-1,2,3,4,4a,9,10,10a-octahydrophenanthrene-2,3,7-triol]	-12.4%	-15.3%	-8.35%	-13.4%	-4.6%	-3.3%	14.6%	-4.16%	-6.16%	-5.49%	-6.15%	-4.59%	-2.45%	0.22%	-2.51%	-8.12%	-6.79%	-4.23%	-6.35%	-3.43%	IFNγ (% inhibition) (IFNγ; mean of donors): 21.96%; inhibition at 3 µM (IFNγ; Homo sapiens, mean of donors): 22%; inhibition at 1 µM (TNFα; Homo sapiens, mean of donors): 4.14%
Cc1ncccc1COc1ccc2c(c1)CC[C@@H]1C[C@@](O)(c3ccccc3)[C@@H](O)C[C@@]21Cc1ccccc1 [Comparator G, (2R,3S,4aR,10aR)-4a-Benzyl-7(2-methyulpyridin-3-ylmethoxy)-2-phenyl-1,2,3,4,4a,9,10,10a-octahydrophenanthrene-2,3 diol]	16.7%	12.8%	-9.15%	-2.58%	2.66%	2.02%	13.2%	-0.115%	-2.64%	-7.52%	-7.35%	-5.37%	-6.75%	-1.19%	3.22%	-2.9%	-14%	-13.9%	-8.76%	-13.8%	IFNγ (% inhibition) (IFNγ; mean of donors): 41.3796%; inhibition at 3 µM (IFNγ; Homo sapiens, mean of donors): 41%; inhibition at 3 µM (IL-1β; Homo sapiens, mean of donors): < 20%; inhibition at 1 µM (TNFα; Homo sapiens, mean of donors): -8.47%; inhibition at 3 µM (TNFα; Homo sapiens, mean of donors): < 20%

Reference: patent publication US8552035B2, “Phenanthrenone compounds, compositions and methods” (Pfizer Inc., priority 2008, dated 2013)
